Test results taken from ChEMBL document CHEMBL3352818, “Seizure prevention by the naturally occurring phenols, carvacrol and thymol in a partial seizure-psychomotor model” (Bioorg Med Chem Lett, 2014).
Calls of active or inactive are those of the source. No cut-off for these calls is given here.

Assays:
Mus musculus [1] = assay: Anticonvulsant activity in CF1 albino mouse assessed as protection against maximal electroshock-induced seizures at 100 mg/kg, ip after 0.25 hrs; type: functional, organism-based; parameters: dose 100 mg/kg
Mus musculus [2] = assay: Anticonvulsant activity in CF1 albino mouse assessed as protection against maximal electroshock-induced seizures at 100 mg/kg, ip after 0.5 hrs; type: functional, organism-based; parameters: dose 100 mg/kg
Mus musculus [3] = assay: Anticonvulsant activity against CF1 albino mouse seizure model assessed as time to peak effect at 100 mg/kg, ip by 6 Hz psychomotor seizure test; type: functional; conditions: route intraperitoneal
Mus musculus [4] = assay: Anticonvulsant activity against ip dosed CF1 albino mouse seizure model after 4 hrs by 6 Hz psychomotor seizure test; type: functional
Mus musculus [5] = assay: Neurotoxicity in CF1 albino mouse seizure model assessed as time to peak toxic effect at 100 mg/kg, ip after 4 hr by rototod test; type: toxicity, organism-based; parameters: dose 100 mg/kg, route intraperitoneal; conditions: in vivo
[6] = Neurotoxicity in ip dosed CF1 albino mouse seizure model after 4 hr by rototod test; type: toxicity, organism-based; conditions: in vivo
[7] = Protective index, ratio of TD50 for CF1 albino mouse neurotoxicity to ED50 for protection against 6 Hz electroshock-induced seizure in CF1 albino mouse; type: toxicity, organism-based; conditions: in vivo, read-out: Ratio TD50/ED50
Mus musculus [8] = assay: Neurotoxicity in CF1 albino mouse seizure model at 100 mg/kg, ip after 1 hrs by rototod test; type: toxicity, organism-based; parameters: dose 100 mg/kg, route intraperitoneal; conditions: in vivo
Mus musculus [9] = assay: Neurotoxicity in CF1 albino mouse seizure model at 100 mg/kg, ip after 2 hrs by rototod test; type: toxicity, organism-based; parameters: dose 100 mg/kg, route intraperitoneal; conditions: in vivo
Mus musculus [10] = assay: Neurotoxicity in CF1 albino mouse seizure model at 100 mg/kg, ip after 4 hrs by rototod test; type: toxicity, organism-based; parameters: dose 100 mg/kg, route intraperitoneal; conditions: in vivo
Mus musculus [11] = assay: Anticonvulsant activity in CF1 albino mouse assessed as protection against maximal electroshock-induced seizures at 100 mg/kg, ip after 1 hrs; type: functional, organism-based; parameters: dose 100 mg/kg
Mus musculus [12] = assay: Anticonvulsant activity in CF1 albino mouse assessed as protection against maximal electroshock-induced seizures at 100 mg/kg, ip after 2 hrs; type: functional, organism-based; parameters: dose 100 mg/kg
Mus musculus [13] = assay: Anticonvulsant activity in CF1 albino mouse assessed as protection against pentylenetetrazole-induced seizure at 100 mg/kg, ip after 2 hrs by scMET test; type: functional, organism-based; parameters: dose 100 mg/kg
Mus musculus [14] = assay: Anticonvulsant activity in CF1 albino mouse assessed as protection against pentylenetetrazole-induced seizure at 100 mg/kg, ip after 4 hrs by scMET test; type: functional, organism-based; parameters: dose 100 mg/kg
Mus musculus [15] = assay: Reduction Li-pilocarpine-induced weight loss in protected CF1 albino mouse at 65 mg/kg, ip after 0.5 hrs; type: functional, organism-based; parameters: dose 65 mg/kg
Mus musculus [16] = assay: Reduction Li-pilocarpine-induced weight loss in non-protected CF1 albino mouse at 65 mg/kg, ip after 0.5 hrs; type: functional, organism-based; parameters: dose 65 mg/kg
Mus musculus [17] = assay: Anticonvulsant activity against CF1 albino mouse seizure model assessed as protection at 100 mg/kg, ip after 0.5 hrs by 6 Hz psychomotor seizure test; type: functional, organism-based; parameters: dose 100 mg/kg
Mus musculus [18] = assay: Anticonvulsant activity against CF1 albino mouse seizure model assessed as protection at 100 mg/kg, ip after 1 hrs by 6 Hz psychomotor seizure test; type: functional, organism-based; parameters: dose 100 mg/kg
Mus musculus [19] = assay: Neurotoxicity in CF1 albino mouse seizure model at 100 mg/kg, ip after 0.25 hrs by rototod test; type: toxicity, organism-based; parameters: dose 100 mg/kg, route intraperitoneal; conditions: in vivo
Mus musculus [20] = assay: Neurotoxicity in CF1 albino mouse seizure model at 100 mg/kg, ip after 0.5 hrs by rototod test; type: toxicity, organism-based; parameters: dose 100 mg/kg, route intraperitoneal; conditions: in vivo
Mus musculus [21] = assay: Anticonvulsant activity in CF1 albino mouse assessed as protection against pentylenetetrazole-induced seizure at 100 mg/kg, ip after 0.25 hrs by scMET test; type: functional, organism-based; parameters: dose 100 mg/kg
Mus musculus [22] = assay: Anticonvulsant activity in CF1 albino mouse assessed as protection against pentylenetetrazole-induced seizure at 100 mg/kg, ip after 1 hrs by scMET test; type: functional, organism-based; parameters: dose 100 mg/kg
Mus musculus [23] = assay: Anticonvulsant activity against CF1 albino mouse seizure model assessed as protection at 100 mg/kg, ip after 0.25 hrs by 6 Hz psychomotor seizure test; type: functional, organism-based; parameters: dose 100 mg/kg
Mus musculus [24] = assay: Anticonvulsant activity in CF1 albino mouse assessed as protection against maximal electroshock-induced seizures at 100 mg/kg, ip after 4 hrs; type: functional
Mus musculus [25] = assay: Anticonvulsant activity in CF1 albino mouse assessed as protection against pentylenetetrazole-induced seizure at 100 mg/kg, ip after 0.5 hrs by scMET test; type: functional, organism-based; parameters: dose 100 mg/kg
Mus musculus [26] = assay: Anticonvulsant activity in CF1 albino mouse assessed as protection against Li-pilocarpine-induced seizure at 65 mg/kg, ip; type: functional, organism-based; parameters: dose 65 mg/kg
Mus musculus [27] = assay: Anticonvulsant activity in CF1 albino mouse assessed as protection against pentylenetetrazole-induced seizure at 200 mg/kg, ip after 4 hrs by scMET test; type: functional; conditions: route intraperitoneal
Mus musculus [28] = assay: Anticonvulsant activity against CF1 albino mouse seizure model assessed as protection at 100 mg/kg, ip after 4 hrs by 6 Hz psychomotor seizure test; type: functional, organism-based; parameters: dose 100 mg/kg

Structure (SMILES)	Activity (Mus musculus [1])	Activity (Mus musculus [2])	Time (Mus musculus [3]) [h]	ED50 (Mus musculus [4]) [mg/kg]	Time (Mus musculus [5]) [h]	TD50 at 4 h [6] [mg/kg]	selectivity ratio [7]	Activity (Mus musculus [8])	Activity (Mus musculus [9])	Activity (Mus musculus [10])	Activity (Mus musculus [11])	Activity (Mus musculus [13])	Activity (Mus musculus [19])	Activity (Mus musculus [20])	also measured
CC(C)c1ccccc1O	inactive	inactive	0.25	49.9	4	142	2.8	Non-toxic	Non-toxic	Non-toxic	inactive	inactive	–	–	Activity (Mus musculus [12]): inactive; Activity (Mus musculus [14]): inactive; inhibition (Mus musculus [15]): inactive; inhibition (Mus musculus [16]): inactive
CC(C)c1cccc(O)c1	inactive	inactive	0.25	53.8	4	129	2.4	–	–	Non-toxic	–	inactive	Non-toxic	Non-toxic	Activity (Mus musculus [17]): inactive; Activity (Mus musculus [18]): Active; Activity (Mus musculus [21]): inactive; Activity (Mus musculus [22]): inactive; Activity (Mus musculus [14]): inactive
NC(=O)N1c2ccccc2C=Cc2ccccc21 [CARBAMAZEPINE]	–	–	–	47.9	–	–	–	–	–	–	–	–	–	–	–
Cc1ccc(C(C)C)cc1O [CARVACROL]	inactive	inactive	0.25	35.8	6	191	5.3	Non-toxic	Non-toxic	Non-toxic	inactive	inactive	Non-toxic	Non-toxic	Activity (Mus musculus [23]): inactive; Activity (Mus musculus [17]): inactive; Activity (Mus musculus [12]): inactive; Activity (Mus musculus [24]): inactive; inhibition in vivo at 100 mg/kg (Mus musculus [24]; route intraperitoneal): 20%; Activity (Mus musculus [21]): inactive; Activity (Mus musculus [25]): inactive; Activity (Mus musculus [26]): inactive; inhibition in vivo at 200 mg/kg (Mus musculus [27]): 40%
Cc1ccc(C(C)C)cc1 [P-CYMENE]	–	–	0.25	51.3	–	–	–	–	–	–	–	–	–	–	Activity (Mus musculus [5]): ND(toxic)
CC(C)c1cccc(C(C)C)c1O [PROPOFOL]	–	–	–	32.8	–	–	1.1	–	–	–	–	–	–	–	–
Cc1ccc(C(C)C)c(O)c1 [THYMOL]	–	–	0.25	35.8	0.25	121	3.4	Non-toxic	Non-toxic	Non-toxic	inactive	–	Non-toxic	Non-toxic	Activity (Mus musculus [23]): Active; Activity (Mus musculus [28]): inactive; Activity (Mus musculus [26]): inactive
CN1C(=O)OC(C)(C)C1=O [TRIMETHADIONE]	–	–	–	218	–	–	3.8	–	–	–	–	–	–	–	–
